The record followed here is patent US20260152777A1, “METHOD FOR PRODUCING EPIGALLOCATECHIN GALLATE MONOGLUCOSIDE” (GIVAUDAN SA, priority 2022, published 2026).

Format in all cases: in vivo, human
Experiment [1] concerns Asian volunteers with dull skin and large senescence spots. The experiment is described as follows: Clinical study: skin biomechanical properties by Cutometer (R0, firmness). Particulars: for Firmness effect (R0) Mean +/− SD / Firmness effect (R0) Average variation (%) vs D 0: hemiface. The text has this:
For this study, volunteers applied the cream twice a day for 56 days.
GLYCOL, DIMETHICONE, FRAGRANCE
(§1) Volunteers were divided into two groups as follows: • Group 1: 20 Asian women testing the active cream in comparison to the placebo cream with an average age of 54±5 years. • Group 2: 18 Asian women testing the vitamin C cream in comparison to the placebo cream with an average age of 53±8 years.
(§2) Volunteers applied a cream containing 0.4% of active, 2% of ascorbic acid (vitamin C), respectively, on one hemiface and a placebo cream on the other hemiface […] for 56 days.
(§3) During this study, a skin color and spots analysis was conducted using Colorface®, biomechanical properties were tested using Cutometery®, and the dermis thickness was determined using a DUB SkinScanner 75® probe (max. depth of 3.28 mm).
The analysis of the mechanical properties of the skin enables to assess the functional state of the following tissue structures: • The elastic structures, such as elastic fibers, curvature of the connective bundles, wrinkles of the stratum corneum; and • the viscous-behaving structures, such as interstitial fluids, internal adherences.
The study was performed using a Cutometer® MPA 580 (Courage & Khazaka). The measuring principle is based on the suction method: Negative pressure is created in the device and the skin is drawn into a cylindrical aperture (2 mm in diameter) of the probe. Inside the probe, the penetration depth is determined by an optical measuring system. Each suction phase is followed by a relaxing phase.
In the present study, the following program was used: • Length of the cycle: 4 seconds • Suction: 2 seconds • Relaxation: 2 seconds • Negative pressure: 450 millibars • Diameter of the chamber: 2 mm • Area measured: crow's feet
From these curves, the parameters can be calculated. • During the suction phase, the deformation of the skin by the negative pressure measures first the elastic resistance and then the viscous component, which taken together represent skin firmness. • During the relaxation phase, the immediate recovery of the skin measures sheer cutaneous elasticity, whereas the delayed return of the skin to its initial position measures the viscoelastic component.
This study focused on the R0 or Uf parameter, which represents the amplitude of the skin during the suction phase. At equal pressure, the more flexible the skin, the greater the amplitude. Thus R0 (or UF) will evaluate the viscoelastic dispensability, or in other words, the firmness of the skin.
These parameters were measured on D0, D28, D56.

Experiment [2] shares this test system. Description: Clinical study: skin color analysis using Colorface (homogeneity, radiance, pigment defect). The settings on record: for Pigment defect Mean +/− SD / Radiance Mean +/− SD / Pigment defect Average volume (mm^3) vs D 0 / Radiance Average variation (%) vs D 0: cream with 2% ascorbic acid, hemiface, Asian women; for pigment homogeneity, fold better than the placebo: vitamin C cream 2%.
Source text: For this study, volunteers applied the cream twice a day for 56 days. […]
as §1, §2, §3
Skin color measurements were performed based on photos taken with the Colorface® acquisition system. Colorface® is a 2D acquisition system for taking standardized and multimodal photos of the entire face. The device is equipped with a 24M pixel sensor and also has a specific UV lamp. The acquisition methods are: UltraViolet, photo without filter, cross-polarized photo, parallel-polarized photo, standard 45° photo, and standard […].
An analysis of the radiance of the complexion, pigment spots, color (L*,a*,b* parameters) and melanin on the spots from photos using image analysis software was performed. 2D photos of the face were taken on D0, D28 and D56.

Experiment [3] relates to female Caucasian volunteers presenting brown spots on their hands. Description: Clinical study: age-spot removal by Raman spectroscopy (skin background fluorescence, melanin detection). Particulars: for Melanin detection Mean +/− SD / Melanin detection TBX − TB0: hands, twice daily, Caucasian women. The protocol: A double blind and placebo controlled clinical evaluation was carried out on 45 female Caucasian volunteers aged from 45 to 75 years. The volunteers were presenting brown spots on their hands. All the subjects participating in the study gave their informed consent at the beginning of the study. […] At D0 and D56, the anti-spot efficacy was analyzed by Raman spectroscopy. The compositions described in Example 12 were used. The set-up included a confocal Raman probe coupled to a dispersive Raman spectrograph. The excitation laser beam was sent to the remote probe via a 5 μm core-diameter fiber and the Raman signal was conveyed to the spectrograph via a 100 μm core-diameter fiber. The probe was equipped with a 100× long working distance objective operating in air. A piezo-electric device allowed to collect Z Raman profiles by assuring axial measurements from the surface down to a defined depth in the skin. A color video camera integrated in the probe permitted to visualize the skin surface. This camera is also useful to control the focalization of the laser on the skin. The spectrograph was equipped with a CCD (Coupled Charge Detector) of 1024×256 elements cooled by Peltier effect, and an 830 grooves/mm grating, which allows to cover a large spectral range from 550 to 3700 cm^−1 in a single shot acquisition, with a spectral resolution of about 6 cm^−1. The excitation source was a 660 nm laser diode and the power at the sample was set to 30 mW in accordance with protection standards for radiation. For protection against laser radiation, protective glasses were used. The 660 nm excitation was chosen as the optimal compromise between generation of parasitic fluorescence and sensitivity of the CCD camera over the whole spectral range. For skin characterization, the measurement of high wavenumber vibrations is important to access information on water content. For data acquisition, the device was controlled by the Labspec 5 software. The Z profiles consist of an in-depth scanning through the skin. Raman spectra were collected at different focus points, from skin surface Z=0 μm to 30 μm (under the skin surface) with 3 μm steps. The measurement depths are indicated in the following table with the corresponding acquisition times, leading to a time of 1 min for a complete profile. In total, 519 Raman profiles were recorded: 2 profiles per condition and for each area (unstained area and brown spot area). Each profile comprises 14 spectra, resulting in recorded 7266 spectra. These measurements were used for the evaluation of the spectroscopic marker of skin background fluorescence. This marker is associated with the degree of skin lightening: A decrease in this marker indicates a positive skin lightening effect, whereas a stability or an increase in this marker means that the product has no lightening effect on the skin. The pre-processing of spectral data was performed using Matlab 7.2 (The MathWorks Inc., USA). Aberrant profiles (bad S/N (signal/noise) ratio, fluorescence, incomplete profile with a large zero offset, saturation . . . ) were excluded from the data base. Each non-aberrant profile was submitted to background corrections, which allowed to clean up the Raman signal of the skin. These background corrections included smoothing spectra with a 9-mm Savitzky-Golay filter, spikes correction, […] the normalization on the intensity of the entire wavenumber range with a vectorial function. A baseline correction was not done in order to preserve the skin background fluorescence, which allows for the extraction of the skin fluorescence markers associated with the degree of skin lightening. After these pre-processing steps, corrected data were used to determine the spectra corresponding to the Stratum corneum surface. […] The skin properties were evaluated using Raman spectroscopy after 28 and 56 days of twice daily application.

Setting [4] is: cream with 2% ascorbic acid, Asian women, D 28.
Where [5] appears, read: cream with 2% ascorbic acid, Asian women, D 56.

With `O=C1O[C@H]([C@@H](O)CO)C(O)=C1O` [Ascorbic acid, ascorbic acid], the “Firmness effect (R0) Mean +/− SD” value came out at 0.283 ± 0.036 arbitrary unit in experiment [1] (cream with 2% ascorbic acid, Asian women, D 0 (baseline)); 0.263 ± 0.032 arbitrary unit in experiment [1] (setting [4]); 0.264 ± 0.046 arbitrary unit in experiment [1] (setting [5]). Also, the “Firmness effect (R0) Average variation (%) vs D 0” value is given as −6.9% in experiment [1] (setting [4]) and −6.5% in experiment [1] (setting [5]). Also, the “Pigment defect Mean +/− SD” value came out at 15660 ± 4532 arbitrary unit in experiment [2] (D 0 (baseline)), 13826 ± 4311 arbitrary unit in experiment [2] (D 28) and 13078 ± 3731 arbitrary unit in experiment [2] (D 56). Also, the “Radiance Mean +/− SD” value is 72.3 ± 1.6 arbitrary unit in experiment [2] (D 0 (baseline)), 72.7 ± 1.9 arbitrary unit in experiment [2] (D 28) and 73.3 ± 2.3 arbitrary unit in experiment [2] (D 56). The figures for the “Pigment defect Average volume (mm^3) vs D 0” value in experiment [2] (D 28) and in experiment [2] (D 56) were −11.7% and −16.5%, respectively. Besides, the “Radiance Average variation (%) vs D 0” value is 0.7% in experiment [2] (D 28) and 1.4% in experiment [2] (D 56). For the same compound, the “pigment homogeneity, fold better than the placebo” value in experiment [2] (day 28) amounted to 1.6 fold; in experiment [2] (day 56), 1.8 fold. Further, the “Melanin detection Mean +/− SD” value is recorded as 49.80 ± 13.13 arbitrary unit in experiment [3] (ascorbic acid at 2%, D 0 (baseline)); 52.05 ± 11.23 arbitrary unit in experiment [3] (ascorbic acid at 2%, D 28); 32.28 ± 10.43 arbitrary unit in experiment [3] (ascorbic acid at 2%, D 56). The “Melanin detection TBX − TB0” value in experiment [3] (ascorbic acid at 2%, D 28) is “+2.25 a.u”; in experiment [3] (ascorbic acid at 2%, D 56), −17.52 a.u.

In the case of `O=C(O[C@@H]1Cc2c(O)cc(O)cc2O[C@@H]1c1cc(O)c(O[C@H]2O[C@H](CO)[C@@H](O)[C@H](O)[C@H]2O)c(O)c1)c1cc(O)c(O)c(O)c1` [epigallocatechin gallate 4′-O-α-monoglucoside], in experiment [1] (active cream 0.4%, Asian women), the “improvement of skin firmness relative to the placebo cream” value is on record as “up to 21 fold”. Besides, the “Firmness effect (R0) Average variation (%) vs D 0” value was around 8.7% in experiment [1] (active cream 0.4%, Asian women, D 28) and −8.2% in experiment [1] (active cream 0.4%, Asian women, D 56). In addition, the “improvement of skin firmness, times better than placebo” value in experiment [1] (after 56 days) is “up to 21 times”. Also, the “effect on pigment homogeneity, times more pronounced relative to the placebo” value in experiment [2] (active cream 0.4%, after 28 days) was 3.0 times. In addition, the “reduction of pigment defect (melanin content in pigmented spots area) compared to the placebo” value in experiment [2] (active cream 0.4%, after 56 days) is listed as “up to −21.7%”. Moreover, in experiment [3] (Caucasian volunteers having pigmented spots on their hands), the “reduction of skin heterogeneity” value is on record as “up to −24%”. In addition, the “Melanin detection TBX − TB0” value in experiment [3] (product with 0.4% purified preparation, D 28) was −10.2 a.u; in experiment [3] (product with 0.4% purified preparation, D 56), −20.4 a.u.
